Laboratory results reported in ChEMBL document CHEMBL5241068, “Biguanides: Species with versatile therapeutic applications” (Eur J Med Chem, 2021).

Tests used:
[1] = Inhibition of Brugia malayi DHFR
[2] = Inhibition of quorum sensing system in Chromobacterium violaceum CV12472
[3] = Solubility of compound at pH 8; type: physicochemical; details: buffer
[4] = target: Replicase polyprotein 1ab (Severe acute respiratory syndrome coronavirus 2) (UniProt P0DTD1); experiment: Binding affinity to SARS CoV-2 3CL protease assessed as gibbs free energy change
SK-OV-3 = experiment: Antiproliferative activity against human SK-OV-3 cells incubated for 72 hrs by MTT assay; type: functional, cell-based; details: SK-OV-3, 72 h
IGROV-1 = experiment: Antiproliferative activity against human IGROV-1 cells incubated for 72 hrs by MTT assay; type: functional, cell-based; details: IGROV-1, 72 h
MDA-MB-231 = experiment: Antiproliferative activity against human MDA-MB-231 cells in presence of phenformin; type: functional, cell-based
T47D = experiment: Antiproliferative activity against human T47D cells in presence of phenformin; type: functional, cell-based
[5] = Inhibition of Toxoplasma gondii DHFR
[6] = Selectivity index, ratio of IC50 for rat liver DHFR to IC50 for Toxoplasma gondii DHFR
[7] = Lipophilicity, logP of the compound; type: physicochemical; details: octanol/water
FaDu = experiment: Anticancer activity against human FaDu cells; type: functional, cell-based
C6661 = experiment: Anticancer activity against human C6661 cells; type: functional, cell-based
[8] = Cmax in mouse at 1 mg/kg, po; type: ADME, organism-based; set-up: dose 1 mg/kg, route po; details: in vivo
[9] = Elimination half life in mouse at 1 mg/kg, po; type: ADME, organism-based; details: in vivo, read-out: beta t1/2 (converted)
A2780 = experiment: Antiproliferative activity against human A2780 cells; type: functional, cell-based
Escherichia coli = experiment: Bactericidal activity against Escherichia coli assessed as time required to kill the bacteria at 95 uM; type: functional

COc1cc(Cc2cnc(N)nc2N)cc(OC)c1OC [TRIMETHOPRIM]
IC50 [1]: 12.9 µM

N=C(N=C(N)N)N(Cc1ccccc1)c1ccccc1
IC50 [2]: 179 µM

CCc1nc(N)nc(N)c1-c1ccc(Cl)cc1 [PYRIMETHAMINE]
IC50 [1]: 20.1 µM

Cl.N=C(N)NC(=N)N1CCOCC1
solubility [3]: 360 mg/mL | deltaG [4]: -2.11 kcal/mol

CN(C)C(=N)NC(=N)N [METFORMIN]
IC50 (SK-OV-3): 150 µM | IC50 (IGROV-1): 850 µM | IC50 (MDA-MB-231): 4010 µM | IC50 (T47D): 9400 µM | deltaG [4]: -6.72 kcal/mol

NC(N)=N/C(N)=N/c1ccc(OCc2ccc(-c3ccccc3)cc2)cc1
IC50 [1]: < 5.83 µM

NC(N)=N/C(N)=N/c1ccc(OCc2cccc(Cl)c2)cc1
IC50 [1]: 16.7 µM

CC1(C)N=C(N)N=C(N)N1c1ccc(OCc2ccc(Cl)cc2Cl)cc1
IC50 [1]: 5.73 µM

CC1(C)N=C(N)N=C(N)N1c1ccc(OCc2ccc(-c3ccccc3)cc2)cc1
IC50 [5]: 0.012 µM | Ratio IC50 [6]: 2.15

N=C(NCCCCCCCCCCNC(=N)Nc1ncc(Cl)cn1)Nc1ncc(Cl)cn1
logP [7]: 5.5

NC(N)=N/C(N)=N/c1ccc(OCc2ccc(Cl)cc2Cl)cc1
IC50 [1]: 6.31 µM

CCCC[C@@H](CC)CNC(=N)NC(=N)NCCCCCCNC(=N)NC(=N)NC[C@H](CC)CCCC
EC50 (FaDu): 1.8 µM | EC50 (C6661): 2.6 µM

CN(C)C(=N)N=C(N)N [METFORMIN]
Cmax [8]: 2000 ng/mL | half-life [9]: 6 h

Clc1ccc(Nc2ccnc(Nc3ccc(Cl)cc3)n2)cc1
logP [7]: 5.5

N=C(N=C(N)N)N(c1ccccc1)c1ccc(N)cc1
IC50 [2]: 120 µM

NC(N)=N/C(N)=N/Cc1ccco1
IC50 (SK-OV-3): 380 µM | IC50 (IGROV-1): 150 µM

NC(N)=N/C(N)=N/CCOc1ccn(-c2ccc(Cl)cc2)n1
IC50 (A2780): 6.9 µM

C=CC(=O)OCCc1ccc(/N=C(N)/N=C(\N)Nc2ccc(Cl)cc2)cc1.Cl
Time (Escherichia coli): 30 min

N=C(NCCCCCCCCCCCCNC(=N)Nc1ncc(Cl)cn1)Nc1ncc(Cl)cn1
logP [7]: 5.5
